The values below come from patent US20260265250A1, “3-[…] ACTIVATORS OF SEROTONIN RECEPTORS” (Atai Therapeutics, Inc., priority 2023, published 2026).

Assay [1] concerns the target T1, 5-HT2A (Homo sapiens, UniProt P28223). As to conditions: compared to reference LSD; cited from earlier work.
Target sequence in this assay (P28223 whole entry): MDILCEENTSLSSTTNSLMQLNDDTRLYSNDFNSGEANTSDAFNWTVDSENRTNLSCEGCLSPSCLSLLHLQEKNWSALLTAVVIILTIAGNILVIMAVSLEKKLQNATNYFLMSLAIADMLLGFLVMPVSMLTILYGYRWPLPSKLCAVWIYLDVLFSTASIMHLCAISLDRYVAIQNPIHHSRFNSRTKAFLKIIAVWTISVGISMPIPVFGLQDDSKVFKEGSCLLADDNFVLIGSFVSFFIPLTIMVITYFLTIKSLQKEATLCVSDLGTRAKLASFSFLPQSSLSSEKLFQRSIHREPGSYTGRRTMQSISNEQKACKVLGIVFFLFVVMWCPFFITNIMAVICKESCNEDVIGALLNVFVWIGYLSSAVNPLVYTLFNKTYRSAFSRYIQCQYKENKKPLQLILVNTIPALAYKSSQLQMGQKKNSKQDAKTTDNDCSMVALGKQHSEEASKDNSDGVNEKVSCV
The target in assay [2] is T1, 5-HT2A. The experiment in a line: Calcium Mobilization Assay (Calcium No-WashPLUS, Gq, FLIPR). Format: cell-based. Particulars: read-out: 5-HT2A % activation @30 uM Ca++ Flux. As to the method:
(§1) Compounds 1-18 were assessed for biological activity across a panel of 5-HT receptors including 5-HT2A, 5-HT2B, and 5-HT2C. Biased signaling was assessed by monitoring both intracellular Gq-mediated calcium release, as well as β-arrestin activation and recruitment to the GPCR. Table 2 is a summary of findings across these compounds and the 5-HT receptors tested. • (i) Arrestin Pathway Assay. The PathHunter® β-Arrestin assay monitors the activation of a GPCR in a homogenous, non-imaging assay format using a technology developed by DiscoverX called Enzyme Fragment Complementation (EFC) with β-galactosidase (β-Gal) as the functional reporter. […] EA is fused to β-Arrestin and PK is fused to the GPCR of interest. When the GPCR is activated and β-Arrestin is recruited to the receptor, ED and EA complementation occurs, restoring β-Gal activity which is measured using chemiluminescent PathHunter® Detection Reagents. PathHunter cell lines (DiscoveRx Eurofins) were expanded from freezer stocks according to standard procedures. Cells were seeded in a total volume of 20 μL into white walled, 384-well microplates and incubated at 37° C. for the appropriate time prior to testing. For agonist determination, cells were incubated with sample to induce response. Intermediate dilution of sample stocks was performed to generate 5× sample in assay buffer. 5 μL of 5× sample was added to cells and incubated at 37° C. or room temperature for 90 to 180 minutes. Vehicle concentration was 1%. β-Arrestin assay signal was generated through a single addition of 12.5 or 15 μL (50% v/v) of PathHunter Detection reagent cocktail, followed by a one-hour incubation at room temperature. Microplates were read following signal generation with a PerkinElmer Envision™ instrument for chemiluminescent signal detection. Compound activity was analyzed using CBIS data analysis suite (ChemInnovation, CA). For agonist mode assays, percentage activity was calculated using the following formula: % Activity=100%×(mean RLU of test sample-mean RLU of vehicle control)/(mean MAX control ligand−mean RLU of vehicle control). In these studies, the MAX control ligand response was generated using 10 mM serotonin. • (ii) Calcium Mobilization Assay. The Calcium No-WashPLUS assay monitors the activation of a GPCR via Gq secondary messenger signaling in a live cell, non-imaging assay format. Calcium mobilization in PathHunter® cell lines or other cell lines stably expressing Gq-coupled GPCRs is monitored using a calcium-sensitive dye that is loaded into cells. GPCR activation by a compound result in the release of calcium from intracellular stores and an increase in dye fluorescence that is measured in real-time. Cell lines expressing the GPCR of interest were expanded from freezer stocks according to standard procedures. Cells were seeded in a total volume of 20 μL into black-walled, clear-bottom, Poly-D-lysine coated 384-well microplates and incubated at 37° C. for the appropriate time prior to testing. Assays were performed in 1× Dye Loading Buffer consisting of 1× Dye, 1× Additive A and 2.5 mM Probenecid in HBSS/20 mM Hepes. Probenicid was prepared fresh. Cells were loaded with dye prior to testing. Media was aspirated from cells and replaced with 20 μL Dye Loading Buffer. Cells were incubated for 30-60 minutes at 37° C. For agonist determination, cells were incubated with sample to induce response. After dye loading, cells were removed from the incubator and 10 μL HBSS/20 mM Hepes was added. 3× vehicle was included in the buffer when performing agonist dose curves to define the EC80 for subsequent antagonist assays. Cells were incubated for 30 minutes at room temperature in the dark to equilibrate plate temperature. Intermediate dilution of sample stocks was performed to generate 4× sample in assay buffer. Compound agonist activity was measured on a FLIPR Tetra (MDS). Calcium mobilization was monitored for 2 minutes and 10 μL 4× sample in HBSS/20 mM Hepes was added to the cells 5 seconds into the assay. […]
Target sequence in this assay (P28223 whole entry): as above

Assay [3] concerns the target T1, 5-HT2A. The experiment in a line: PathHunter β-Arrestin assay. Format: cell-based. As to the method:
as §1
Target sequence in this assay (P28223 whole entry): as above
Target sequence in this assay (P32121 whole entry, further chain): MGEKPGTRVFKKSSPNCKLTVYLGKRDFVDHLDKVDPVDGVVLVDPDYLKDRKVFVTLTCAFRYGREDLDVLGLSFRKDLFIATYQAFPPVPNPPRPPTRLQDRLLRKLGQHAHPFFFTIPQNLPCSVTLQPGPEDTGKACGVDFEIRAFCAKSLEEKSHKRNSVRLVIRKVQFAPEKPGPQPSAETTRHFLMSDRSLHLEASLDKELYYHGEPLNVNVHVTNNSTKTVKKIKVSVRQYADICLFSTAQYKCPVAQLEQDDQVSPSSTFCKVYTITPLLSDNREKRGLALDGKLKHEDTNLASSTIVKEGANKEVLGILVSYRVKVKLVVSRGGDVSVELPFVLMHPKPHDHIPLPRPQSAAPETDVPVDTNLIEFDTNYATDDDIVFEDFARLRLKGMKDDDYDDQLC

Assay [4] has as its target T2, 5-HT2C (Homo sapiens, UniProt P28335).
T2 sequence (P28335 33-458): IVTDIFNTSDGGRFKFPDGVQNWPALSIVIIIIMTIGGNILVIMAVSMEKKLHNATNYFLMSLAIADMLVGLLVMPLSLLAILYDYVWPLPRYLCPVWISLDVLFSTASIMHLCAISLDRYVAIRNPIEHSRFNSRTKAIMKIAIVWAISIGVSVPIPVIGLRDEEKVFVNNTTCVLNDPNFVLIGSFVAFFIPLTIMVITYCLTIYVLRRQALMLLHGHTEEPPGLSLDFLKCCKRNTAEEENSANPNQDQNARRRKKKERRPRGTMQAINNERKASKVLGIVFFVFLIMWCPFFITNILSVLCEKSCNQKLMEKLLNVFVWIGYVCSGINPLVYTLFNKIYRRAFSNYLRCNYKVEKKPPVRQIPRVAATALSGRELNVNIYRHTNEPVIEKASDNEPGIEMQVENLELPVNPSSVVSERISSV
The experiment in a line: 5-HT receptor panel, 5-HT2C agonist EC50 (readout not stated). Format: cell-based. As for the experimental part: as §1

The subject of assay [5] is 5-HT2A receptor. Particulars: cited from earlier work.
The test system of assay [6] is 5-HT2A receptor. Particulars: cited from earlier work. This is another data set of the same source.

Where a name gives a salt, the structure may show the parent alone.

Turning to `COc1ccc(OC)c(CCNCc2cccc3c2OCO3)c1` [Compound 25H-NBMD], the “preference for recruitment of β-arrestin 2 over miniGaq” value (from here on “preference … over miniGaq”) in assay [1] is “statistically significant preference towards the recruitment of β-arrestin 2 over miniGaq”. Consider `COc1ccc(OC)c(CCNCc2ccccc2OC)c1` [Compound 25H-NBOMe], for which the “preference … over miniGaq” value in assay [1] was “statistically significant preference towards the recruitment of β-arrestin 2 over miniGaq”.

For the molecule `COc1ccc(OC)c(CCNCc2ccccc2F)c1` [Compound 25H-NBF], the “preference … over miniGaq” value in assay [1] is listed as “statistically significant preference towards the recruitment of β-arrestin 2 over miniGaq”. A word on the EC50: it is the midpoint of the concentration-response curve. A low value points to higher potency in that assay. Turning to `COc1cc2c(CCNCc3cc(C)cc(Cl)c3)c[nH]c2cc1I` [Compound 4, N-(3-chloro-5-methylbenzyl)-2-(6-iodo-5-methoxy-1H-indol-3-yl) ethan-1-amine], the activation at 30 µM in assay [2] came out at 96.4%. The concentration for a half-maximal effect (EC50) worked out at 60 nM in assay [3] and 384 nM in assay [4]. Regarding `Cc1cc(Cl)cc(CN(C)CCc2c[nH]c3ccccc23)c1` [Compound 18], the activation at 30 µM in assay [2] turned out to be 93.3%.

For `Cc1cc(Cl)cc(CNC(C)Cc2cn(C)c3ccccc23)c1` (stereo not drawn) [Compound 6, N-(3-chloro-5-methylbenzyl)-1-(1-methyl-1H-indol-3-yl) propan-2-amine], in assay [2], the activation at 30 µM amounted to 110%. For `Cc1cc(Cl)cc(CNCCc2c[nH]c3ccccc23)c1` [Compound 1, N-(3-chloro-5-methylbenzyl)-2-(1H-indol-3-yl) ethan-1-amine], the activation at 30 µM in assay [2] came to 77.8%. In addition, the results for the EC50 in assay [3] and in assay [4] were 4.5 nM and 28 nM, respectively. As for `CCN(CC)C(=O)[C@@H]1C=C2c3cccc4[nH]cc(c34)C[C@H]2N(C)C1` [LSD], the “expression of early growth response proteins (EGR1 and EGR2) via Gi/o subunits and SRC protein kinase” value in assay [5] was “stimulated the expression of early growth response proteins (EGR1 and EGR2)”. In addition, the “activation of canonical Gq-based signaling downstream of 5-HT2A” value in assay [6] is “activate canonical Gq-based signaling downstream of 5-HT2A”.

With `CCn1cc(CCNCc2cc(C)cc(Cl)c2)c2ccccc21` [Compound 7, N-(3-chloro-5-methylbenzyl)-2-(1-ethyl-1H-indol-3-yl) ethan-1-amine hydrochloride], in assay [2], the activation at 30 µM was 95.9%. Besides, the EC50 in assay [3] worked out at 17.2 nM; in assay [4] it was 4 nM. Regarding `Cc1cc(Cl)cc(CNCCn2c(=O)oc3ccccc32)c1` [Compound 17, 3-(2-((3-chloro-5-methylbenzyl)amino)ethyl)benzo-[d]oxazol-2(3H)-one], in assay [2], the activation at 30 µM is -5.4%. On the same count and under the same terms, the result for `Cc1cc(Cl)cc(CNCCn2ncc3ccccc32)c1` [Compound 12, N-(3-chloro-5-methylbenzyl)-2-(1H-indazol-1-yl) ethan-1-amine hydrochloride] reads 69.8%. In the case of `Cc1cc(Cl)cc(CNCCn2cnc3ccccc32)c1` [Compound 13, 2-(1H-benzo[d]imidazol-1-yl)-N-(3-chloro-5-methylbenzyl) ethan-1-amine hydrochloride], in assay [2], the activation at 30 µM was 43.5%. Still for that read-out and setting: the result for `Cc1cc(Cl)cc(CNCc2c[nH]c3ccccc23)c1` [Compound 3, N-((1H-indol-3-yl)methyl)-1-(3-chloro-5-methylphenyl) methanamine hydrochloride] reads 77.2%. Turning to `COc1ccc(OC)c(CCNCc2ccccc2O)c1` [Compound 25H-NBOH], the “preference … over miniGaq” value in assay [1] is listed as “statistically significant preference towards the recruitment of β-arrestin 2 over miniGaq”. As to `Cc1cc(Cl)cc(CNC(C)Cc2c[nH]c3ccccc23)c1` (stereo not drawn) [Compound 2, N-(3-chloro-5-methylbenzyl)-1-(1H-indol-3-yl) propan-2-amine], the activation at 30 µM in assay [2] was found to be 84.2%. Besides, the EC50 is 434 nM in assay [3] and 102 nM in assay [4]. Regarding `CCn1cc(CC(C)NCc2cc(C)cc(Cl)c2)c2ccccc21` (stereo not drawn) [Compound 8, N-(3-chloro-5-methylbenzyl)-1-(1-ethyl-1H-indol-3-yl) propan-2-amine], in assay [2], the activation at 30 µM came out at 86.4%.

On to `Cc1cc(Cl)cc(CNCCc2cn(C)c3ccccc23)c1` [Compound 5, N-(3-chloro-5-methylbenzyl)-2-(1-methyl-1H-indol-3-yl) ethan-1-amine], for which the activation at 30 µM in assay [2] was determined as 112%. Moreover, the EC50 worked out at 17.5 nM in assay [3] and 116 nM in assay [4]. For the molecule `Cc1cc(Cl)cc(CNCCc2nn(C)c3ccccc23)c1` [Compound 11, N-(3-chloro-5-methylbenzyl)-2-(1-methyl-1H-indazol-3-yl)-ethan-1-amine], the activation at 30 µM in assay [2] was 79.1%. With `Cc1cc(F)cc(CNCCc2c[nH]c3ccccc23)c1` [Compound 10, N-(3-fluoro-5-methylbenzyl)-2-(1H-indol-3-yl) ethan-1-amine hydrochloride], the activation at 30 µM in assay [2] is 72.6%. Take `Cc1cc(Cl)cc(CNCCc2c(C)[nH]c3ccccc23)c1` [Compound 9, N-(3-chloro-5-methylbenzyl)-2-(2-methyl-1H-indol-3-yl) ethan-1-amine hydrochloride]: in assay [2], the activation at 30 µM came out at 88.9%. Further, the EC50 in assay [3] is 15 nM; in assay [4] it was above 1000 nM.
